Data published in patent US20040115126A1, “Compositions and methods for the non-invasive detection of polypeptides in vivo” (The Regents of the University of Michigan, priority 2002, published 2004).

B1: TRAIL: TNF-related apoptosis inducing ligand (protein, UniProt P50591 1-281, looked up)
Tumor necrosis factor ligand …: MAMMEVQGGPSLGQTCVLIVIFTVLLQSLCVAVTYVYFTNELKQMQDKYSKSGIACFLKEDDSYWDPNDEESMNSPCWQVKWQLRQLVRKMILRTSEETISTVQEKQQNISPLVRERGPQRVAAHITGTRGRSNTLSSPNSKNEKALGRKINSWESSRSGHSFLSNLHLRNGELVIHEKGFYYIYSQTYFRFQEEIKENTKNDKQMVQYIYKYTSYPDPILLMKSARNSCWSKDAEYGLYSIYQGGIFELKENDRIFVSVTNEHLIDMDHEASFFGAFLVG

Columns and labels:
[1] = system: 9L gliosarcoma cells genetically engineered to stably express firefly luciferase (9LLuc); experiment: BCNU chemotherapy of orthotopic 9L-Luc rat brain tumors, log cell kill from serial MRI and BLI; assay type: in vivo; conditions: intracerebral 9LLuc tumor, treated 16 days after implantation, mean ±SEM, n=5
Description: Current assessment of orthotopic tumor models in animals utilizes survival as the primary therapeutic endpoint. In vivo bioluminescence imaging ([…]) is a sensitive imaging modality that is rapid and accessible, and comprises an ideal tool for evaluating antineoplastic therapies. Using human tumor cell lines constitutively expressing luciferase, the kinetics of tumor growth and response to therapy have been assessed in intraperitoneal, subcutaneous and intravascular cancer models. […] Therefore, the ability of BLI to noninvasively quantitate the growth and therapeutic-induced cell kill of orthotopic rat brain tumors derived from 9L gliosarcoma cells genetically engineered to stably express firefly luciferase (9L^Luc) was investigated.
Intracerebral tumor burden was monitored over time by quantifying photon emission and tumor volume using a cryogenically-cooled CCD camera and magnetic resonance imaging (MRI), respectively. Excellent correlation (r=0.91) between detected photons and tumor volume was found.
FIGS. 5A-5O show a temporal analysis of the response of a 9L^Luc tumor to BCNU chemotherapy. […] Tumor volume was monitored with T2-weighted MRI (FIGS. 5A-5F) and infra-tumoral luciferase activity was monitored with BLI (FIGS. 5G-5L). […] Quantitative analysis of tumor progression and response to BCNU chemotherapy is shown by the graph FIG. 50. […]

[2] = system: D-54 derived stable cell line expressing a caspase-3 reporter molecule; experiment: Non-invasive bioluminescence imaging of apoptosis in D-54 caspase-3 reporter tumors in nude mice; assay type: in vivo; conditions: 50 ug intratumorally, s.q. D-54 reporter tumors in nude mice, IVIS imaging after luciferin
Description: FIG. 6 depicts one strategy for imaging apoptosis. In this example, an estrogen regulatory domain results in silencing of luciferase due to sequestration. Activation of caspase-3 during apoptosis results in cleavage at the DEVD site, thus, releasing luciferase from the silencing effects of the estrogen regulatory domain. The free luciferase can, in the presence of luciferin, generate bioluminescense which can be imaged in vitro or in vivo using a Xenogen camera system.
FIGS. 8A and 8B depict non-invasive imaging of apoptosis. D-54 derived stable cell line expressing a caspase-3 reporter molecule similar to that described in FIG. 6 was implanted s.q. into nude mice. When the tumors reached a palpatable size they were treated with vector only (PBS, Panel A) or with 50 ug of TRAIL intratumoraly (panel B). Bioluminescent activity within the tumor was then measured after injection of luciferin using a IVIS imaging system.

[3] = system: D-54 cells expressing ER-Luc-ER caspase-3 reporter; experiment: Western blot of caspase-3 reporter (ER-Luc-ER) cleavage in D-54 cells; assay type: cell-based; conditions: various concentrations for 3 hrs
Procedure: FIG. 7 depicts a western blot showing induction of apoptosis. In D-54 cells, a caspase-3 reporter construct analogous to the one described in FIG. 6 except with ER domains as well as the caspase-3 cleavage sequence (DEVD) were present on the amino and carboxy termini (ER-Luc-ER) was used in the above studies. […] D-54 cells expressing this molecule were treated with TRAIL (TNF-related apoptosis inducing ligand) at various concentrations for 3 hrs.

Molecule | Log cell kill calculated using BLI ([1]; BLI photon emission) | Log cell kill calculated using MRI ([1]; T2-weighted MRI tumor volume) | increase in bioluminescence compared to the vector control [2] | cleavage of ER-Luc-ER reporter (luciferase specific antibody western blot) [3]
O=NN(CCCl)C(=O)NCCCl [BCNU, 1,3-bis(2-chloroethyl)-1 nitrosourea] | 1.84±0.73 | 1.78±0.36 |  | 
B1 |  |  | 2-3 × | cleaved to a 90 kD molecule (ER-Luc) and subsequently to Luc (60 kD)
